Data from US20020142996A1, “Use of bisphosphonic acids for treating angiogenesis” (priority 1999, published 2002).
Read-outs that look alike come from different tables or passages of the source.

Tests used:
[1] = test system: Human umbilical vein endothelial cells (HUVEC); test: cells
HUVEC = test: Endothelial cell migration assay
[2] = test system: human tumour cell line A431 (epithelial carcinoma); test: Tumour cell proliferation assay (methylene blue)
[3] = test system: Human umbilical vein endothelial cells (HUVEC); settings: 30 μM
[4] = test system: bFGF induced angiogenesis; test: Growth factor impregnated subcutaneous chamber implant angiogenesis model in mice (bFGF); format: in vivo; settings: 1, 10 and 100 μg/kg/day s.c., chambers removed 5 days after implantation
Procedure: (§1) Effect of Zoledronic Acid on Angiogenesis Induced by Growth Factor Impregnated, Subcutaneous Implants in Mice
(§2) Female mice (Tiflbm:MAG ) weighing 17 to 20 g were used. They were identified via ear markings and kept in groups (6 animals per cage) under normal conditions and observed daily. Six mice were used per treatment group in each experiment. All experiments were performed at least twice.
(§3) Porous tissue chambers made of perfluoro-alkoxy-Teflon (Teflon®-PFA, 21 mm×8 mm diameter, 550 μl volume) and perforated with 80 regularly spaced 0.8 mm holes were used. Both ends were sealed with removable caps of the same material. Four to six chambers were inserted in a silicon tube (12 mm diameter). […]
(§4) Five days after implantation, animals were anaesthetized (3% isoflurane) and sacrificed using an overdose of pentobarbitone (210 mg/kg i.p., Vetanarcol, Veterinaria AG, Zürich, Switzerland). Chambers were then taken out of the animal, the vascularized fibrous tissue that had formed around each implant was carefully removed, weighed and the total amount of blood was quantified by colorimetric determination of the haemoglobin concentration.
(§5) After addition of 2 ml of distilled water, tissue samples were homogenised for 1 min at 24000 rpm (Ultra Turrax T25). […] The absorbance at 540 mn (Uvikon 810 P) is proportional to the haemoglobin concentration. […]

[5] = test system: VEGF induced angiogenesis; test: Growth factor impregnated subcutaneous chamber implant angiogenesis model in mice (VEGF); format: in vivo; settings: highest dose tested, 100 μg/kg/day s.c.
Procedure: as §1, §2, §3, §4, §5

O=P(O)(O)C(O)(Cn1ccnc1)P(=O)(O)O [Zoledronate, 1-hydroxy-2-(imidazol-1-yl)ethane-1,1-diphosphonic acid]
IC50 ([1]; read-out: IC50, VEGF-induced HUVEC proliferation): 6.9 ± 0.4 µM | IC50 ([1]; read-out: IC50, bFGF-induced HUVEC proliferation): 4.2 ± 0.4 µM | IC50 ([1]; read-out: IC50, serum-induced HUVEC proliferation): 4.1 ± 0.6 µM | effect on HUVEC migration (HUVEC; 30 μM): completely inhibited | effect on HUVEC migration (HUVEC; concentrations of up to 10 μM, basal medium, serum or VEGF): stimulated HUVEC migration | IC50 ([2]; Homo sapiens, A-431, 72 h, read-out: IC50, proliferation of A431): 1.35 µM

O=C(O)CN(CCN(CC(=O)O)CC(=O)O)CC(=O)O [EDTA]
inhibition of HUVEC proliferation induced by FCS ([3]; FCS): 23.7% | inhibition of HUVEC proliferation induced by VEGF ([3]; VEGF): 55.6% | inhibition of HUVEC proliferation induced by bFGF ([3]; bFGF): 49.5% | effect on HUVEC migration (HUVEC): no consistent effects | inhibition of A431 proliferation ([2]; 30 μM): 8.8% | effect on A431 proliferation in the tested dose range ([2]; tested dose range): no significant effect

O=P(O)(O)C(O)(Cn1ccnc1)P(=O)(O)O [Zoledronic acid, 1-hydroxy-2-(imidazol-1-yl)ethane-1,1-diphosphonic acid]
approximate IC50, inhibition of bFGF-induced angiogenic response measured by blood content ([4]; blood content): ~3.1 µg/kg | approximate IC50, inhibition of bFGF-induced angiogenic response measured by weight ([4]; tissue weight): ~2.5 µg/kg | inhibition of the VEGF-induced increase in blood content [5]: significant inhibition | inhibition of the VEGF-induced increase in weight [5]: not in weight
